Values of other authors, collected in publication PMC11528414 (Journal of the American Chemical Society, 2024).

Test system: PANC-1
Conditions: read-out: Reported Anticancer Activity PANC-1 (IC50); reported values

Compound: C[N+]1=C2C=C(NCCc3ccc(O)cc3)C(=O)c3[nH]cc(c32)CC1 [makaluvamine J]
- IC50: 54 nM
